The values that follow come from patent US20230031406A1, “COMPOUNDS AND COMPOSITIONS FOR TREATING CONDITIONS ASSOCIATED WITH NLRP ACTIVITY” (Novartis AG, priority 2018, published 2023).

pIC50: −log10 of the molar value. Like-named read-outs stand apart in the source and are kept apart here.

As a reminder, the pIC50 is the IC50 on a negative log10 scale, so that one unit is a factor of ten.

The assay deals with PMA-differentiated THP-1 cells. Description: IL-1β production in PMA-differentiated THP-1 cells stimulated with gramicidin (hTHP-1 assay containing 2% fetal bovine serum; Procedures 1 and 2). The format is cell-based, human. The conditions noted are these: 2% fetal bovine serum. An outline of the steps:
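IL-1β release from PMA-differentiated THP-1 macrophage-like cells was triggered by 5 μM gramicidin for 2 h after 1 h compound exposure, then measured by HTRF.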

Where [1] appears, read: Homo sapiens, THP-1, Table B2, class symbols, read-out: hTHP-1 IC50.
Setting [2] is: Homo sapiens, THP-1, Table B3, hTHP-1 assay, class symbols, read-out: IC50.
Setting [3] is: Table B1, class symbols, read-out: Average IC50 of compounds in hTHP-1 assay: hTHP-1 IC50.
[4] abbreviates: Homo sapiens, THP-1, Table B1, class symbols, read-out: Average IC50 of compounds in hTHP-1 assay: hTHP-1 IC50.
Setting [5] is: Table B3, hTHP-1 assay, class symbols, read-out: IC50.
[6] abbreviates: Table B2, class symbols, read-out: hTHP-1 IC50.

Consider `Cc1cc(S(N)(=O)=NC(=O)Nc2c3c(nc4c2CCC4)CCC3)sc1C(C)(C)O` (centres unmarked) [Compound 692, N′-((1,2,3,5,6,7-hexahydrodicyclopenta[b,e]pyridin-8-yl)carbamoyl)-5-(2-hydroxypropan-2-yl)-4-methylthiophene-2-sulfonimidamide], for which the pIC50 under setting [1] is 5.30 to 6.00.

For the compound `C[C@@](O)(CO)c1cc(F)c([S@](N)(=O)=NC(=O)Nc2c3c(nc4c2CCC42CC2)CCC3)s1` [Example 676, (R)-5-((R)-1,2-dihydroxypropan-2-yl)-3-fluoro-N′-((1′,5′,6′,7′-tetrahydro-2′H-spiro[cyclopropane-1,3′-dicyclopenta[b,e]pyridin]-8′-yl)carbamoyl)thiophene-2-sulfonimidamide], under setting [2], the pIC50 is 6.00 to 6.70.

Take `CC1CCc2c1nc1c(c2NC(=O)N=S(N)(=O)c2ccc(CN(C)C)cc2)CCC1` (centres unmarked) [Compound 134, 4-((dimethylamino)methyl)-N′-((3-methyl-1,2,3,5,6,7-hexahydrodicyclopenta[b,e]pyridin-8-yl)carbamoyl)benzenesulfon-imidamide]: under setting [3], the pIC50 was 5.30 to 6.00.

On to `CC(C)(O)c1cnc(S(N)(=O)=NC(=O)Nc2c3c(nc4c2CCC4)CCC3)s1` (centres unmarked) [Compound 167], for which, under setting [4], the pIC50 was 5.30 to 6.00. For the compound `CC(C)(CO)c1ncc(S(N)(=O)=NC(=O)Nc2c3c(nc4c2CCC4(C)C)CCC3)s1` (centres unmarked) [Example 605, N′-((3,3-dimethyl-1,2,3,5,6,7-hexahydrodicyclopenta[b,e]pyridin-8-yl)carbamoyl)-2-(1-hydroxy-2-methylpropan-2-yl)thiazole-5-sulfonimidamide], the pIC50 under setting [2] was 6.00 to 6.70. Consider `C[C@@H]1CCc2c1nc1c(c2NC(=O)N=S(N)(=O)c2nn(C(F)F)cc2F)CCC1` (single isomer, unassigned) [Example 679, (R) or (S)-1-(difluoromethyl)-4-fluoro-N′-(((R)-3-methyl-1,2,3,5,6,7-hexahydrodicyclopenta[b,e]pyridin-8-yl)carbamoyl)-1H-pyrazole-3-sulfonimidamide], for which, under setting [5], the pIC50 is 6.70 to 7.40.

In the case of `CCn1cc(F)c(S(N)(=O)=NC(=O)Nc2c3c(nc(C(F)(F)F)c2-c2ccccc2)CCC3)n1` (single isomer, unassigned) [Example 767, (R) or (S)-1-ethyl-4-fluoro-N′-((3-phenyl-2-(trifluoromethyl)-6,7-dihydro-5H-cyclopenta[b]pyridin-4-yl)carbamoyl)-1H-pyrazole-3-sulfonimidamide], the pIC50 (Table B4, class symbols, read-out: hTHP-1 IC50) was 7.40 to 8.10. `Cc1c(C(F)(F)F)nc2c(c1NC(=O)N=[S@@](N)(=O)c1cnc(C(C)(C)O)s1)C(C)CC2` (stereo partly drawn) [Example 575, (R)-N′-((3,5-dimethyl-2-(trifluoromethyl)-6,7-dihydro-5H-cyclopenta[b]pyridin-4-yl)carbamoyl)-2-(2-hydroxypropan-2-yl)thiazole-5-sulfonimidamide]: the pIC50 under setting [2] was 5.30 to 6.00. Take `CCn1cc(F)c(S(N)(=O)=NC(=O)Nc2c3c(nc4c2CCC4(C)C)CCC3)n1` (single isomer, unassigned) [Example 715, (R) or (S)-N′-((3,3-dimethyl-1,2,3,5,6,7-hexahydrodicyclopenta[b,e]pyridin-8-yl)carbamoyl)-1-ethyl-4-fluoro-1H-pyrazole-3-sulfonimidamide]: the pIC50 under setting [5] is above 8.10. Consider `CCc1nc2c(c(NC(=O)N=S(N)(=O)c3cnc(C(C)(C)O)s3)c1C1CC1)CCC2` (single isomer, unassigned) [Compound 630b, (R) or (S)-N′-((3-cyclopropyl-2-ethyl-6,7-dihydro-5H-cyclopenta[b]pyridin-4-yl)carbamoyl)-2-(2-hydroxypropan-2-yl)thiazole-5-sulfonimidamide], for which the pIC50 under setting [6] was 6.00 to 6.70. Take `CC(C)c1ncc(F)c(C(C)C)c1NC(=O)N=S(N)(=O)c1cnc(C(C)(C)O)s1` (centres unmarked) [Compound 164, N′-((5-fluoro-2,4-diisopropylpyridin-3-yl)carbamoyl)-2-(2-hydroxypropan-2-yl)thiazole-5-sulfonimidamide]: the pIC50 under setting [4] is 5.30 to 6.00. Consider `CC1(C)CCc2c1nc1c(c2NC(=O)N=S(N)(=O)c2cc(CO)n(CCO)n2)CCC1` (centres unmarked) [Example 626, N′-((3,3-dimethyl-1,2,3,5,6,7-hexahydrodicyclopenta[b,e]pyridin-8-yl)carbamoyl)-1-(2-hydroxyethyl)-5-(hydroxymethyl)-1H-pyrazole-3-sulfonimidamide], for which the pIC50 under setting [2] was 6.00 to 6.70. With `Cc1c(C(F)(F)F)nc2c(c1NC(=O)N=S(N)(=O)c1cnc(C(C)(C)O)s1)CCC2C` (centres unmarked) [Compound 608, N′-((3,7-dimethyl-2-(trifluoromethyl)-6,7-dihydro-5H-cyclopenta[b]pyridin-4-yl)carbamoyl)-2-(2-hydroxypropan-2-yl)thiazole-5-sulfonimidamide], under setting [6], the pIC50 was 5.30 to 6.00. Take `CC(C)n1cc(CO)c(S(N)(=O)=NC(=O)Nc2c3c(nc4c2CCC4(C)C)CCC3)n1` (single isomer, unassigned) [Compound 682a, (S) or (R)-N′-((3,3-dimethyl-1,2,3,5,6,7-hexahydrodicyclopenta [b,e]pyridin-8-yl)carbamoyl)-4-(hydroxymethyl)-1-isopropyl-1H-pyrazole-3-sulfonimidamide]: the pIC50 (Homo sapiens, THP-1, Table B2, numeric bounds, read-out: hTHP-1 IC50) is below 4.52. With `CC(C)(O)c1ncc(S(N)(=O)=NC(=O)Nc2c3c(nc4c2CCC4F)CCC3)s1` (single isomer, unassigned) [Compound 183c, (R,S) or (R,R)-N′-((3-fluoro-1,2,3,5,6,7-hexahydrodicyclo-penta[b,e]pyridin-8-yl)carbamoyl)-2-(2-hydroxypropan-2-yl)thiazole-5-sulfonimidamide], the pIC50 under setting [3] is 4.52 to 5.30. As to `CC(C)c1nc(C(F)(F)F)nc(C(C)C)c1NC(=O)N=S(N)(=O)c1sc(C(C)(C)O)nc1CO` (centres unmarked) [Compound 179, N′-((4,6-diisopropyl-2-(trifluoromethyl)pyrimidin-5-yl)carbamoyl)-4-(hydroxymethyl)-2-(2-hydroxypropan-2-yl)thiazole-5-sulfonimidamide], under setting [4], the pIC50 is 5.30 to 6.00.

In the case of `CC(C)c1csc(S(N)(=O)=NC(=O)Nc2c3c(nc4c2CCC4C)C(C)CC3)c1` (centres unmarked) [Compound 123, N′-((3,5-dimethyl-1,2,3,5,6,7-hexahydrodicyclopenta[b,e]pyridin-8-yl)carbamoyl)-4-isopropylthiophene-2-sulfonimidamide], the pIC50 under setting [4] was 5.30 to 6.00. Regarding `CC(C)c1c(C2CC2)nc2c(c1NC(=O)N=S(N)(=O)c1cc(C(C)(C)O)cs1)CCC2` (centres unmarked) [Compound 667, N′-((2-cyclopropyl-3-isopropyl-6,7-dihydro-5H-cyclopenta[b]pyridin-4-yl)carbamoyl)-4-(2-hydroxypropan-2-yl)thiophene-2-sulfonimidamide], under setting [1], the pIC50 was 6.00 to 6.70. As for `CC1(C)CCc2c1nc1c(c2NC(=O)N=S(N)(=O)c2sc(C(O)(CO)CO)nc2CO)CCC1` (centres unmarked) [Compound 985b], the pIC50 under setting [2] was 6.00 to 6.70. Take `CC(C)(O)c1nc(CCO)c(S(N)(=O)=NC(=O)Nc2c3c(nc4c2CCC4)CCC3)s1` (single isomer, unassigned) [Compound 118b, (S) or (R)-N′-((1,2,3,5,6,7-hexahydrodicyclo-penta[b,e]pyridin-8-yl)carbamoyl)-4-(2-hydroxyethyl)-2-(2-hydroxypropan-2-yl)thiazole-5-sulfonimidamide]: the pIC50 (Homo sapiens, THP-1, Table B1, numeric bounds, read-out: Average IC50 of compounds in hTHP-1 assay: hTHP-1 IC50) is below 4.62.
